Here are results for four compounds from patent publication WO2015077660A1, “Enzyme reactor system enabling enhanced enzymatic digestion, analyte solubility and improved mass spectrometric compatibility” (priority 2013, dated 2014).

Data set [1] is described as follows: Aggregation of BSA in IMER, ammonium acetate, 5mM CaCl2, 5% glycerol (Table 34). It is filed as physicochemical. The settings on record: 5% and 10% (Tables 34 and 35), 50mM ammonium acetate, 5mM CaCl2, 70°C.
Data set [2] has as its system trypsin. The experiment in a line: Insulin digestion in immobilized enzyme reactor, buffer screening (Table 7). It is filed as biochemical, porcine. The settings on record: IMER; for Digested / Peptide / Undigested: 70°C, 60 s; for digestion efficiency: CaCl2 as high as 500 mM.
A short description of data set [3]: Aggregate formation on digestion at high protein loads. The class given is physicochemical, monkey. The settings on record: 10% final concentration with 500 mM CaCl2.
The subject of another data set is BSA. The experiment in a line: Screen of additives for prevention of aggregation (Table 5). It is filed as physicochemical, bovine. The settings on record: 12.5 mg/mL BSA, 70°C, four columns in printed order, heads missing.
Data set [4] has as its system T1, porcine trypsin.
T1 construct: purchased
The data set is described as follows: Insulin digestion by trypsin in solution, buffer screening (Table 9). The class given is biochemical. The settings on record: for Digested / Peptide / Undigested: 37°C, 18 h; for trypsin digestion: high concentrations, as high as 500 mM.

The nature of data set [5]: Plasma digestion with buffer/additive combinations, aggregation. The settings on record: 100mM CaCl2, 90 minutes. It is filed as physicochemical, beagle.
A short description of data set [6]: Aggregation of BSA in IMER, ammonium acetate, 5mM CaCl2, 0.1% octylglucoside (Table 33). The class given is physicochemical. The settings on record: 0.1% in 50mM ammonium acetate, 5mM CaCl2, 70°C.
Data set [7] relates to T1, porcine trypsin. The experiment in a line: Comparing digestion buffers, solution digestion of insulin. The class given is biochemical. The settings on record: 37°C, 18 hours, versus tris buffer containing calcium chloride.
Data set [8] concerns trypsin. The data set is described as follows: Human IgG digestion in response to calcium concentration (Table 11). The class given is biochemical, porcine. The settings on record: CaCl2 above 1 mM.

`OCC(O)CO` [Glycerol]: the “sample solubility and aggregation” value in data set [1] is “enhances sample solubility and prevents aggregation”. For the same compound, the Digested with trypsin [2] (5%) is 2051870; in the data set on trypsin [2] (10%), 1779261; in the data set with trypsin [2] (20%), 1167862; in the data set on porcine trypsin [4] (5%), 1007768; in the data set with porcine trypsin [4] (10%) it was 833521; in the data set with porcine trypsin [4] (20%) it was 654553. The Peptide was 828171 with trypsin [2] (5%); 697488 with trypsin [2] (10%); 445736 with trypsin [2] (20%); 432166 in the data set on porcine trypsin [4] (5%); 353626 with porcine trypsin [4] (10%); 275165 in the data set on porcine trypsin [4] (20%). Also, the Undigested with trypsin [2] (5%) was determined as 2217803; with trypsin [2] (10%), 2432362; in the data set with trypsin [2] (20%), 3174668; with porcine trypsin [4] (5%), 3685707; with porcine trypsin [4] (10%), 4404492; with porcine trypsin [4] (20%), 5163829. The formation of aggregates result in data set [3] is given as “prevented the formation of aggregates”. In addition, the aggregation result in the data set on BSA (5%) is reported as “Ν”; in the data set on BSA (10%), “Ν”; in data set [5] (10% in 50mM TBS), “no aggregation”. Also, the digestion efficiency entry in the data set with porcine trypsin [4] (lower to moderate concentrations) is listed as “does not significantly, negatively impact digestion efficiency”.
As to `CCCCCCCCO[C@@H]1O[C@H](CO)[C@@H](O)[C@H](O)[C@H]1O` [OGS, octylglucoside], the Digested in the data set on trypsin [2] (0.05%) is reported as 2394275; in the data set with trypsin [2] (0.1%), 2255277; in the data set on trypsin [2] (0.15%), 2430665; in the data set on trypsin [2] (0.2%) it was 2255277; in the data set with porcine trypsin [4] (0.05%), 1424601; with porcine trypsin [4] (0.1%) it was 1616907. The Digested in the data set with porcine trypsin [4] (0.15%) came to 1538290; in the data set on porcine trypsin [4] (0.2%), 1574071. For the same compound, the Peptide with trypsin [2] (0.05%) is 958775; with trypsin [2] (0.1%), 891922; with trypsin [2] (0.15%), 942341; with trypsin [2] (0.2%), 891922; in the data set on porcine trypsin [4] (0.05%), 581489; in the data set on porcine trypsin [4] (0.1%), 675287. Moreover, the Peptide in the data set with porcine trypsin [4] (0.15%) came out at 636117; with porcine trypsin [4] (0.2%) it was 619589. Further, the Undigested stood at 1730676 in the data set on trypsin [2] (0.05%); 2114234 in the data set on trypsin [2] (0.1%); 2160281 in the data set with trypsin [2] (0.15%); 2114234 in the data set with trypsin [2] (0.2%); 3798587 with porcine trypsin [4] (0.05%); 4128179 in the data set with porcine trypsin [4] (0.1%). Moreover, the Undigested with porcine trypsin [4] (0.15%) was found to be 3751677; in the data set on porcine trypsin [4] (0.2%), 3732438. The “sample solubility and aggregation” value in data set [6] was “enhances sample solubility and prevents aggregation”. Moreover, the aggregation result is “Ν” in the data set on BSA (additive concentration not given) and “significant aggregation” in data set [5] (0.1% in 50mM TBS).
For the compound `N.O=C(O)O` [ammonium bicarbonate], the enzyme activity entry with porcine trypsin [7] was “significantly higher”.
With `[Ca+2].[Cl-].[Cl-]` [CaCl2, calcium chloride], the Digested is listed as 2725600 in the data set on trypsin [2] (0.05M); 2844924 in the data set on trypsin [2] (0.1M); 2950068 in the data set on trypsin [2] (0.25M); 3031625 in the data set with trypsin [2] (0.5M); 3066738 in the data set with trypsin [2] (1M); 2007752 with porcine trypsin [4] (0.05M). Besides, the Digested came to 2377399 with porcine trypsin [4] (0.1M), 3241428 in the data set on porcine trypsin [4] (0.25M), 3340960 with porcine trypsin [4] (0.5M) and 3203158 with porcine trypsin [4] (1M). The Peptide with trypsin [2] (0.05M) came out at 1172085; in the data set on trypsin [2] (0.1M) it was 1221898; in the data set with trypsin [2] (0.25M), 1264212; with trypsin [2] (0.5M) it was 1290650; in the data set on trypsin [2] (1M), 1263872; in the data set on porcine trypsin [4] (0.05M), 860714. For the same compound, the Peptide is 1074482 with porcine trypsin [4] (0.1M), 1430859 with porcine trypsin [4] (0.25M), 1474912 in the data set on porcine trypsin [4] (0.5M) and 1344334 in the data set on porcine trypsin [4] (1M). Further, the Undigested with trypsin [2] (0.05M) is listed as 802494; in the data set with trypsin [2] (0.1M), 609138; with trypsin [2] (0.25M) it was 571246; with trypsin [2] (0.5M) it was 234332; in the data set on trypsin [2] (1M) it was 16129; with porcine trypsin [4] (0.05M), 2746822. Further, the Undigested in the data set on porcine trypsin [4] (0.1M) was 2139571; in the data set on porcine trypsin [4] (0.25M), 2885626; with porcine trypsin [4] (0.5M), 856015; in the data set with porcine trypsin [4] (1M), 949033. For the same compound, the digestion efficiency entry with trypsin [2] is listed as “An increase in digestion was observed”; in the data set with trypsin [2] (listed as calcium chloride) it was “digestion efficiency increased dramatically”. In addition, in the data set with trypsin [8], the enzyme efficiency entry is reported as “increase enzyme efficiency”. The trypsin digestion result in the data set on porcine trypsin [4] was “An increase in digestion was observed”; in the data set on porcine trypsin [4] (listed as calcium chloride), “dramatically improve trypsin digestion”.
